Reference: patent US4678783A, “Substituted isoquinolinesulfonyl compounds” (Asahi Kasei Kogyo Kabushiki Kaisha, priority 1984, dated 1987)

Experiments:
femoral artery = experiment: Blood Flow Volume Increase of Femoral Artery; format: in vivo, Mongrel dogs; conditions: intravenous, anesthetized dogs
Method: (§1) A plethysmographic probe (manufactured and sold by NIHON KODEN CO., LTD.) was mounted on the femoral and vertebral arteries, and blood flow volume was measured by means of a electromagnetic blood flowmeter (type:MF-27, manufactured and sold by NIHON KODEN CO., LTD.). Under these conditions, compounds of the present invention were intravenously administered through a polyethylene tube inserted to a femoral veinlet, and change in blood flow volume was measured by means of the electromagnetic blood flowmeter.
(§2) Effect of the compounds of the present invention on dilation of femoral and vertebral arteries was examined according to the method as mentioned hereinbefore.

[1] = tested on: male spontaneously hypertensive rats (SHR); experiment: Reduction of Blood Pressure (systolic, tail plethysmographic method, oral); format: in vivo, rat (SHR, Wister Kyoto)
Method: Male spontaneously hypertensive rats (SHR, Wister Kyoto) weighing 300 to 350 g were used. Systolic blood pressure was measured indirectly by the tail plethysmographic method in conscious SHR, just prior to, and 1, 2, 4 and 6 hours after oral administration of test drugs. Test drugs, dissolved in deionized water, were administered orally in a volume of 10 ml-solution/kg-rat. Reduction in systolic blood pressure (ΔP, mmHg) was calculated by substracting a systolic blood pressure after administration from that just prior to administration.
Effect of the compounds of the present invention on reduction of blood pressure was examined according to the method as mentioned hereinbefore.

vertebral artery = experiment: Blood Flow Volume Increase of Vertebral Artery; format: in vivo, Mongrel dogs; conditions: intravenous, anesthetized dogs
Method: as §1, §2

Acute Toxicity = conditions: mouse, in vivo; ddY male mice
Method: Acute toxicity of the compounds of the present invention was determined according to the method given below, and the results are shown in Table 15. […] It is known from the results that the acute toxicity of the compounds of the present invention is satisfactorily low.
Using ddY male mice, acute toxicity of the compounds of the present invention was examined according to the method proposed by K. Takagi et al. (K. Takagi and H. Ozawa, "Experimental Techniques in Pharmacology," p200-206 (1960), NANZANDO CO., LTD.).
Acute toxicity test of the compounds of the present invention was effected according to the method as mentioned hereinbefore.

[2] = tested on: mesenteric artery of a rabbit; experiment: Relaxation of Mesenteric Artery (KCl-contracted spiral strip); design: species or system rabbit of Japanese local variety; conditions: Oryctolagus cuniculus; concentration of the hydrochloride attaining 50% of complete relaxation; rabbit mesenteric artery contracted with KCl; read-out: ED50 (the source's name)
Method: A rabbit of Japanese local variety weighing about 3 kg was subjected to blood-letting to death. Then, abdomen of the rabbit was dissected to pick up a mesenteric artery. […] Thus, the shrinkage and relaxation of the artery was ready to be measured as a load on the transducer. To the organ bath, KCl was added in an amount which makes the artery shrink at a half length that in 15 to 20 mM aqueous solution. Then, hydrochlorides of the compounds of the present invention were added to the organ bath to observe relaxation effect on the artery.
Effect of the compounds of the present invention on relaxation of mesenteric artery was examined according to the method as mentioned hereinbefore.

| SMILES | EC50 [2] | ΔPmax (maximally reduced blood pressure) ([1]; 100 mg/kg) | also measured |
| --- | --- | --- | --- |
| CC1CN(S(=O)(=O)c2cccc3cnccc23)CCCN1 (centres unmarked) [(3), 1-(5-isoquinolinesulfonyl)-3-methylhomopiperazine] | 1.6 µM | 65 mmHg | Increase in femoral artery blood flow (femoral artery; 0.3 mg/kg): 35%; Increase in vertebral artery blood flow (vertebral artery; 0.3 mg/kg): 78%; LD50 (Acute Toxicity): 120 mg/kg |
| O=S(=O)(c1cccc2cnccc12)N1CCNCC(Cc2ccccc2)C1 (centres unmarked) [Compound (18), 1-(5-isoquinolinesulfonyl)-6-benzylhomopiperazine] | 10 µM | 43 mmHg | Increase in femoral artery blood flow (femoral artery; 0.3 mg/kg): 45%; Increase in vertebral artery blood flow (vertebral artery; 0.3 mg/kg): 110%; LD50 (Acute Toxicity): 197 mg/kg |
| N=C(N)NCCNS(=O)(=O)c1cccc2c(Cl)nccc12 [Compound (31), N-(2-guanidinoethyl)-1-chloro-5-isoquinolinesulfonamide] | 2 µM | 40 mmHg | LD50 (Acute Toxicity): 160 mg/kg |
| NCCCCNS(=O)(=O)c1cccc2c(O)nccc12 [Compound (48), N-(4-aminobutyl)-1-hydroxy-5-isoquinolinesulfonamide] | 15 µM | 51 mmHg |  |
| CCCCN(CCCC)CCCNS(=O)(=O)c1cccc2c(O)nccc12 [Compound (52), N-(3-di-n-butylaminopropyl)-1-hydroxy-5-isoquinolinesulfonamide] | 21 µM |  | ΔPmax (maximally reduced blood pressure) ([1]; 50 mg/kg): 65 mmHg |
| N=C(N)NCCNS(=O)(=O)c1cccc2c(O)nccc12 [Compound (54), N-(2-guanidinoethyl)-1-hydroxy-5-isoquinolinesulfonamide] | 18 µM | 40 mmHg | LD50 (Acute Toxicity): 135 mg/kg |
| CC(CNC(=N)N)CNS(=O)(=O)c1cccc2c(O)nccc12 (centres unmarked) [Compound (59), N-(3-guanidino-2-methylpropyl)-1-hydroxy-5-isoquinolinesulfonamide] | 21 µM | 52 mmHg |  |
| CC(C)(CCNS(=O)(=O)c1cccc2c(O)nccc12)NC(=N)N [Compound (60), N-(3-guanidino-3-methylbutyl)-1-hydroxy-5-isoquinolinesulfonamide] | 23 µM | 61 mmHg |  |
| CC1CN(S(=O)(=O)c2cccc3c(O)nccc23)CCN1 (centres unmarked) [Compound (61), 1-(1-hydroxy-5-isoquinolinesulfonyl)-3-methylpiperazine] | 17 µM | 48 mmHg |  |
| CN1CCN(S(=O)(=O)c2cccc3c(O)nccc23)CC1 [Compound (65), 1-(1-hydroxy-5-isoquinolinesulfonyl)-4-methylpiperazine] | 25 µM | 53 mmHg |  |
| O=S(=O)(c1cccc2c(Cl)nccc12)N1CCCNCC1 [Compound (76), 1-(1-chloro-5-isoquinolinesulfonyl)homopiperazine] | 2 µM | 60 mmHg |  |
| O=S(=O)(c1cccc2cnccc12)N1CCNCC1 [compound 2, reference compound] |  | 11 mmHg | Increase in femoral artery blood flow (femoral artery; 0.3 mg/kg): 20%; Increase in femoral artery blood flow (femoral artery; 1 mg/kg): 69%; Increase in vertebral artery blood flow (vertebral artery; 0.3 mg/kg): 36%; Increase in vertebral artery blood flow (vertebral artery; 1 mg/kg): 98%; LD50 (Acute Toxicity): 29 mg/kg |
| N=C(N)NCCNS(=O)(=O)c1cccc2cnccc12 [compound 4, reference compound] |  |  | LD50 (Acute Toxicity): 48 mg/kg |

The remaining compounds from weak to strong by EC50 [2], led by results:

| EC50 [2] | SMILES | ΔPmax (maximally reduced blood pressure) ([1]; 100 mg/kg) | also measured |
| --- | --- | --- | --- |
| 25 µM | CCC1CN(S(=O)(=O)c2cccc3c(O)nccc23)CCN1 (centres unmarked) [Compound (62), 1-(1-hydroxy-5-isoquinolinesulfonyl)-3-ethylpiperazine] | 36 mmHg |  |
| 21 µM | CC1CN(S(=O)(=O)c2cccc3c(O)nccc23)C(C)CN1 (centres unmarked) [Compound (64), 1-(1-hydroxy-5-isoquinolinesulfonyl)-2,5-dimethylpiperazine] | 65 mmHg |  |
| 20 µM | CC(C)C(N)CNS(=O)(=O)c1cccc2c(O)nccc12 (centres unmarked) [Compound (51), N-(2-amino-3-methylbutyl)-1-hydroxy-5-isoquinolinesulfonamide] |  | ΔPmax (maximally reduced blood pressure) ([1]; 50 mg/kg): 71 mmHg |
| 18 µM | CC(C)CC1CN(S(=O)(=O)c2cccc3c(O)nccc23)CCN1 (centres unmarked) [Compound (63), 1-(1-hydroxy-5-isoquinolinesulfonyl)-3-isobutylpiperazine] | 48 mmHg |  |
| 17 µM | CN(CCNS(=O)(=O)c1cccc2c(O)nccc12)C1CCCCC1 [Compound (53), N-[2-(N-cyclohexyl-N-methylamino)ethyl]-1-hydroxy-5-isoquinolinesulfonamide] |  | ΔPmax (maximally reduced blood pressure) ([1]; 50 mg/kg): 56 mmHg |
| 15 µM | CC(C)C(CNS(=O)(=O)c1cccc2c(O)nccc12)NC(=N)N (centres unmarked) [Compound (58), N-(2-guanidino-3-methylbutyl)-1-hydroxy-5-isoquinolinesulfonamide] | 41 mmHg |  |
| 14 µM | CC(CN)NS(=O)(=O)c1cccc2c(O)nccc12 (centres unmarked) [Compound (49), N-(2-amino-1-methylethyl)-1-hydroxy-5-isoquinolinesulfonamide] |  | ΔPmax (maximally reduced blood pressure) ([1]; 50 mg/kg): 33 mmHg |
| 14 µM | CC(CNC(=N)N)NS(=O)(=O)c1cccc2c(O)nccc12 (centres unmarked) [Compound (56), N-(2-guanidino-1-methylethyl)-1-hydroxy-5-isoquinolinesulfonamide] | 45 mmHg |  |
| 13 µM | N=C(N)NCCCCNS(=O)(=O)c1cccc2c(O)nccc12 [Compound (55), N-(4-guanidinobutyl)-1-hydroxy-5-isoquinolinesulfonamide] | 38 mmHg |  |
| 11 µM | CCCCC(CNC(=N)N)NS(=O)(=O)c1cccc2c(O)nccc12 (centres unmarked) [Compound (57), N-(1-guanidinomethylpentyl)-1-hydroxy-5-isoquinolinesulfonamide] | 38 mmHg |  |
| 9 µM | CC1CN(C(=N)N)CCN1S(=O)(=O)c1cccc2c(O)nccc12 (centres unmarked) [Compound (68), 1-(1-hydroxy-5-isoquinolinesulfonyl)-4-amidino-2-methylpiperazine] | 48 mmHg |  |
| 8 µM | CC1CN(S(=O)(=O)c2cccc3c(O)nccc23)C(C)CN1C(=N)N (centres unmarked) [Compound (69), 1-(1-hydroxy-5-isoquinolinesulfonyl)-4-amidino-2,5-dimethylpiperazine] | 51 mmHg |  |
| 7 µM | CCCCC(CN)NS(=O)(=O)c1cccc2c(O)nccc12 (centres unmarked) [Compound (50), N-(1-aminomethylpentyl)-1-hydroxyl-5-isoquinolinesulfonamide] |  | ΔPmax (maximally reduced blood pressure) ([1]; 50 mg/kg): 28 mmHg |
| 6 µM | N=C(N)N1CCCN(S(=O)(=O)c2cccc3c(O)nccc23)CC1 [Compound (67), 1-(1-hydroxy-5-isoquinolinesulfonyl)-4-amidinohomopiperazine] | 44 mmHg |  |
| 6 µM | CCCCCCNCCNS(=O)(=O)c1cccc2c(O)nccc12 [Compound (81), N-(2-hexylaminoethyl)-1-hydroxy-5-isoquinolinesulfonamide] | 54 mmHg |  |
| 4 µM | N=C(N)N1CCN(S(=O)(=O)c2cccc3c(O)nccc23)CC1 [Compound (66), 1-(1-hydroxy-5-isoquinolinesulfonyl)-4-amidinopiperazine] | 43 mmHg |  |
| 2 µM | CCCCCCNCCNS(=O)(=O)c1cccc2c(Cl)nccc12 [Compound (74), N-(2-hexylaminoethyl)-1-chloro-5-isoquinolinesulfonamide] | 45 mmHg |  |
